Reference: US11033535B2, “Oxadiazoles and thiadiazoles as TGF-β inhibitors” (Southern Research Institute, priority 2017, dated 2021)
Read-outs that look alike come from different tables or passages of the source.

Test: Pharmacokinetic evaluation following a single oral and intravenous administration
Assay type: in vivo, CD1 mouse
Conditions: CD1, mouse, plasma; for C0 / AUC(0-inf) / AUC(0-t) / MRT inf / half-life / Vd: Table 4, IV Dose: 1 mg/kg
Procedure: A NMP stock solution was prepared by adding 1.136 mL of NMP to 5.68 mg of compound no. 42140 with vortexing and sonification, to obtain a solution with a concentration at 5 mg/mL of 42140:01. Next, to prepare an intravenous formulation, 0.100 mL of the 5 mg/mL stock solution was placed in a new vial. 0.100 mL of NMP and 0.400 mL of PEG400 were added with vortexing and sonification, followed by addition of 0.400 mL of saline with vortexing and sonification. […] 42140:01. Alternatively, to prepare an oral formulation, 0.200 mL of the 5 mg/mL stock solution was placed in a new vial. 0.400 mL of PEG400 was added with vortexing and sonification, followed by addition of 0.400 mL of saline with vortexing and sonifiction. […] 42140:01.
(§1) Briefly, the desired serial concentrations of working solutions were achieved by diluting a stock solution of the compound with 100% acetonitrile. 3 μL of working solutions (5, 10, 20, 50, 100, 500, 1000, 5000, 10000 ng/mL) were added to 30 μL of the blank CD1 mouse plasma to achieve calibration standards of 0.5-1000 ng/mL (0.5, 1, 2, 5, 10, 50, 100, 500, 1000 ng/mL) in a total volume of 33 μL. Five quality control samples at 1 ng/mL, 2 ng/mL, 5 ng/mL, 50 ng/mL and 800 ng/mL for plasma were prepared independently of those used for the calibration curves. These QC samples were prepared on the day of analysis in the same way as calibration standards.
Next, 33 μL standards, 33 μL QC samples, and 33 μL unknown samples (30 μL plasma with 3 μL blank solution) were added to 200 μL of acetonitrile containing IS mixture for precipitating protein, respectively. Then the samples were vortexed for 30 s. After centrifugation at 4 degree Celsius, 4000 rpm for 15 min, 3 μL of supernatant was injected into the LC/MS/MS system for quantitative analysis.
HPLC analysis was performed using 100% water with 0.1% formic acid (Solution A) and 100% acetonitrile with 0.1% formic acid (Solution B) with a flow rate of 0.6 mL/min.
A NMP stock solution was prepared by adding 2.092 mL of NMP to 10.46 mg of […] with vortexing and sonification, to obtain a solution with a concentration at 5 mg/mL of […]. Next, to prepare an intravenous formulation, 0.100 mL of the 5 mg/mL stock solution was placed in a new vial. 0.100 mL of NMP and 0.400 mL of PEG400 were added with vortexing and sonification, followed by addition of 0.400 mL of saline with vortexing and sonification. […] 42320:01. Alternatively, to prepare an oral formulation, 0.200 mL of the 5 mg/mL stock solution was placed in a new vial. 0.400 mL of PEG400 was added with vortexing and sonification, followed by addition of 0.400 mL of saline with vortexing and sonifiction. […] 42320:01.
as §1, with “50 ng/mL,” for “50 ng/mL”

[1] = iv, 1 mg/kg, Table 3, IV Dose: 1 mg/kg, Mouse 1, read-out: Concentration
[2] = iv, 1 mg/kg, Table 3, IV Dose: 1 mg/kg, Mouse 2, read-out: Concentration
[3] = iv, 1 mg/kg, Table 3, IV Dose: 1 mg/kg, Mouse 3, read-out: Concentration
[4] = iv, 1 mg/kg, Table 3, IV Dose: 1 mg/kg, mean, read-out: Concentration, Mean
[5] = po, 5 mg/kg, Table 5, PO Dose: 5 mg/kg, Mouse 4, read-out: Concentration
[6] = po, 5 mg/kg, Table 5, PO Dose: 5 mg/kg, Mouse 5, read-out: Concentration
[7] = po, 5 mg/kg, Table 5, PO Dose: 5 mg/kg, Mouse 6, read-out: Concentration
[8] = po, 5 mg/kg, Table 5, PO Dose: 5 mg/kg, mean, read-out: Concentration, Mean

concentration at 5 min [1]: 96.6 ng/mL
concentration at 5 min [2]: 89.5 ng/mL
concentration at 5 min [3]: 86.3 ng/mL
concentration at 5 min [4]: 90.8 ng/mL
concentration at 0.25 h [1]: 81.5 ng/mL
concentration at 0.25 h [2]: 65 ng/mL
concentration at 0.25 h [3]: 74.2 ng/mL
concentration at 0.25 h [4]: 73.6 ng/mL
concentration at 0.5 h [1]: 57.2 ng/mL
concentration at 0.5 h [2]: 53.8 ng/mL
concentration at 0.5 h [3]: 48.1 ng/mL
concentration at 0.5 h [4]: 53 ng/mL
concentration at 1 h [1]: 57.8 ng/mL
concentration at 1 h [2]: 42.1 ng/mL
concentration at 1 h [3]: 43.7 ng/mL
concentration at 1 h [4]: 47.9 ng/mL
concentration at 2 h [1]: 43.7 ng/mL
concentration at 2 h [2]: 34.1 ng/mL
concentration at 2 h [3]: 39.9 ng/mL
concentration at 2 h [4]: 39.2 ng/mL
concentration at 4 h [1]: 26.1 ng/mL
concentration at 4 h [2]: 18.8 ng/mL
concentration at 4 h [3]: 23.3 ng/mL
concentration at 4 h [4]: 22.7 ng/mL
concentration at 8 h [1]: 16.9 ng/mL
concentration at 8 h [2]: 15.5 ng/mL
concentration at 8 h [3]: 14.9 ng/mL
concentration at 8 h [4]: 15.8 ng/mL
concentration at 24 h [1]: 6.4 ng/mL
concentration at 24 h [2]: 5.76 ng/mL
concentration at 24 h [3]: 4.27 ng/mL
concentration at 24 h [4]: 5.48 ng/mL
C0 (iv, 1 mg/kg, Mouse 1): 105 ng/mL
AUC(0-inf) (iv, 1 mg/kg, Mouse 1, read-out: AUCInf): 557 ng·h/mL
AUC(0-t) (iv, 1 mg/kg, Mouse 1, read-out: AUClast): 462 ng·h/mL
MRT inf (iv, 1 mg/kg, Mouse 1, read-out: MRTInf—obs): 12.1 h
half-life (iv, 1 mg/kg, Mouse 1, read-out: T1/2 (converted)): 10.3 h
Vd (iv, 1 mg/kg, Mouse 1, read-out: Vss—obs): 21.8 L/kg
C0 (iv, 1 mg/kg, Mouse 2): 105 ng/mL
AUC(0-inf) (iv, 1 mg/kg, Mouse 2, read-out: AUCInf): 486 ng·h/mL
AUC(0-t) (iv, 1 mg/kg, Mouse 2, read-out: AUClast): 389 ng·h/mL
MRT inf (iv, 1 mg/kg, Mouse 2, read-out: MRTInf—obs): 13.7 h
half-life (iv, 1 mg/kg, Mouse 2, read-out: T1/2 (converted)): 11.6 h
Vd (iv, 1 mg/kg, Mouse 2, read-out: Vss—obs): 28.1 L/kg
C0 (iv, 1 mg/kg, Mouse 3): 93 ng/mL
AUC(0-inf) (iv, 1 mg/kg, Mouse 3, read-out: AUCInf): 445 ng·h/mL
AUC(0-t) (iv, 1 mg/kg, Mouse 3, read-out: AUClast): 394 ng·h/mL
MRT inf (iv, 1 mg/kg, Mouse 3, read-out: MRTInf—obs): 9.69 h
half-life (iv, 1 mg/kg, Mouse 3, read-out: T1/2 (converted)): 8.36 h
Vd (iv, 1 mg/kg, Mouse 3, read-out: Vss—obs): 21.8 L/kg
AUC(0-inf) (iv, 1 mg/kg, mean, read-out: AUCInf, Mean): 496 ng·h/mL
AUC(0-t) (iv, 1 mg/kg, mean, read-out: AUClast, Mean): 415 ng·h/mL
MRT inf (iv, 1 mg/kg, mean, read-out: MRTInf—obs, Mean): 11.8 h
half-life (iv, 1 mg/kg, mean, read-out: T1/2, Mean (converted)): 10.1 h
Vd (iv, 1 mg/kg, mean, read-out: Vss—obs, Mean): 23.9 L/kg
concentration at 0.25 h [5]: 54.5 ng/mL
concentration at 0.25 h [6]: 60.6 ng/mL
concentration at 0.25 h [7]: 73.1 ng/mL
concentration at 0.25 h [8]: 62.7 ng/mL
concentration at 0.5 h [5]: 92.2 ng/mL
concentration at 0.5 h [6]: 91.9 ng/mL
concentration at 0.5 h [7]: 106 ng/mL
concentration at 0.5 h [8]: 97 ng/mL
concentration at 1 h [5]: 117 ng/mL
SMILES: CNCc1ccc(C[C@H](NC(C)=O)c2nnc(-c3cccc(OC(F)(F)F)c3)s2)cc1 [Compound 42140, N-(2-(4-((methylamino)methyl)phenyl)-1-(5-(3-(trifluoromethoxy)phenyl)-1,3,4-thiadiazol-2-yl)ethyl)acetamide]
